Experimental data: US20030148970A1, “Methods for specifically inhibiting histone deacetylase-4” (priority 2001, published 2003)

Key:
A549 = test: Cell Death Detection ELISA apoptosis, A549; assay type: cell-based, human; conditions: 48 Hour Treatment; TSA at 100 ng/ml
Experimental: (§1) In order to determine the effect of HDAC OSDNs on cell growth and cell death through apoptosis, A549 or T24 cells, MDAmb231 cells, and HMEC cells (ATCC, Manassas, Va.) were treated with HDAC OSDNs as previously described.
(§2) For the apoptosis study, cells were analyzed using the Cell Death Detection ELISA Plus kit (Roche Diagnostic GmBH, Mannheim, Germany) according to the manufacturer's directions. Typically, 10,000 cells were plated in 96-well tissue culture dishes for 2 hours before harvest and lysis. Each sample was analyzed in duplicate. ELISA reading was done using a MR700 plate reader (DYNEX Technology, Ashford, Middlesex, England) at 410 nm. The reference was set at 490 nm.

T24 = test: Cell Death Detection ELISA apoptosis, T24; assay type: cell-based, human; conditions: 48 Hour Treatment; TSA at 100 ng/ml
Experimental: as §1, §2

MDAmb231 = test: Cell Death Detection ELISA apoptosis, MDAmb231; assay type: cell-based, human; conditions: 48 Hour Treatment; TSA at 100 ng/ml
Experimental: as §1, §2

HMEC = test: Cell Death Detection ELISA apoptosis, HMEC; assay type: cell-based, human; conditions: 48 Hour Treatment; TSA at 100 ng/ml; normal cells
Experimental: as §1, §2

human HDAC-2 RNA = test: antisense ODN screen in T24 cells, Northern blot, HDAC-2; assay type: cell-based; conditions: 100 nM, 24 hours
Experimental: Twenty-four phosphorothioate ODNs containing sequences complementary to the 5′ or 3′ UTR of the human HDAC-2 gene (GenBank Accession No. U31814) were screened as above. […] HDAC-2 MM was created as a control; compared to the antisense oligo, it contains a 7-base mismatch.
(§3) Briefly, human A549 and/or T24 human bladder carcinoma cells were seeded in 10 cm tissue culture dishes one day prior to oligonucleotide treatment. The cell lines were obtained from the American Type Culture Collection (ATCC) (Manassas, Va.) and were grown under the recommended culture conditions. Before the addition of the oligonucleotides, cells were washed with PBS (phosphate buffered saline). Next, lipofectin transfection reagent (GIBCO BRL Mississauga, Ontario, Calif.), at a concentration of 6.25 μg/ml, was added to serum free OPTIMEM medium (GIBCO BRL, Rockville, Md.), which was then added to the cells. The oligonucleotides to be screened were then added directly to the cells (i.e., one oligonucleotide per plate of cells). Mismatched oligonucleotides were used as controls. The same concentration of oligonucleotide (e.g., 50 nM) was used per plate of cells for each oligonucleotide tested.
(§4) Cells were harvested, and total RNAs were analyzed by Northern blot analysis. Briefly, total RNA was extracted using RNeasy miniprep columns (QIAGEN). […]

human HDAC-2 protein = test: Western blot of HDAC-2 protein in A549 cells; assay type: cell-based; conditions: 50 nM, 48 hours
Experimental: (§5) OSDN treatment conditions were as previously described.
(§6) Cells were lysed in buffer containing 1% Triton X-100, 0.5% sodium deoxycholate, 5 mM EDTA, 25 mM Tris-HCl, pH 7.5, plus protease inhibitors. Total protein was quantified by the protein assay reagent from Bio-Rad (Hercules, Calif.). 100 ug of total protein was analyzed by SDS-PAGE. Next, total protein was transferred onto a PVDF membrane and probed with various HDAC-specific primary antibodies. Rabbit anti-HDAC-1 (H-51), anti-HDAC-2 (H-54) antibodies (Santa Cruz Biotechnologies, Santa Cruz, Calif.) were used at 1:500 dilution. Rabbit anti-HDAC-3 antibody (Sigma, St. Louis, Mo.) was used at a dilution of 1:1000. Anti-HDAC-4 antibody was prepared as previously described (Wang, S. H. et al., (1999) Mol. Cell. Biol. 19:7816-27), and was used at a dilution of 1:1000. Anti-HDAC-6 antibody was raised by immunizing rabbits with a GST fusion protein containing a fragment of HDAC-6 protein (amino acid #990 to #1216, GenBank Accession No. AAD29048). Rabbit antiserum was tested and found only to react specifically to the human HDAC-6 isoform. HDAC-6 antiserum was used at 1:500 dilution in Western blots to detect HDAC-6 in total cell lysates. Horse Radish Peroxidase conjugated secondary antibody was used at a dilution of 1:5000 to detect primary antibody binding. […]

human cancer cells = test: cell growth analysis (trypan blue) and apoptosis, cancer cells; assay type: cell-based; conditions: 50 nM
Experimental: as §1, §2
Cells were harvested and cell numbers counted by trypan blue exclusion using a hemocytometer. Percentage of inhibition was calculated as (100-AS cell numbers/control cell numbers)%.

human HDAC-6 RNA = test: antisense ODN screen in T24 cells, Northern blot, HDAC-6; assay type: cell-based; conditions: 100 nM, 24 hours
Experimental: Thirteen phosphorothloate ODNs containing sequences complementary to the 5′ or 3′ untranslated regions of the human HDAC-6 gene (GenBank Accession No. AJ011972) were screened as above. […] HDAC-6 MM oligo was created as a control; compared to the antisense oligo, it contains a 7-base mismatch.
as §3, §4

human HDAC-6 protein = test: Western blot of HDAC-6 protein in A549 cells; assay type: cell-based; conditions: 50 nM, 48 hours
Experimental: as §5, §6

human HDAC-3 RNA = test: antisense ODN screen in T24 cells, Northern blot, HDAC-3; assay type: cell-based; conditions: 100 nM, 24 hours
Experimental: Twenty-one phosphorothioate ODNs containing sequences complementary to the 5′ or 3′ UTR of the human HDAC-3 gene (GenBank Accession No. AF039703) were screened as above. […] HDAC-3 MM oligo was created as a control; compared to the antisense oligo, it contains a a 6-base mismatch.
as §3, §4

human HDAC-3 protein = test: Western blot of HDAC-3 protein in A549 cells; assay type: cell-based; conditions: 50 nM, 48 hours
Experimental: as §5, §6

p21 mRNA = test: RNase protection assay, p21 in A549; assay type: cell-based, human; conditions: TSA 250 ng/ml, 16 hours
Experimental: (§7) As a control, A549 cells were treated by lipofectin with or without TSA (250 ng/ml) treatment for 16 hours. These RNase protection assays were done according to the following procedure. Total RNA from cells was prepared using “RNeasy miniprep kit” from QIAGEN following the manufacturer's manual. Labeled probes used in the protection assays were synthesized using “hStress-1 multiple-probe template sets” from Pharmingen (San Diego, Calif., U.S.A.) according to the manufacturer's instructions. Protection procedures were performed using “RPA II™ Ribonuclease Protection Assay Kit” from Ambion, (Austin, Tx.) following the manufacturer's instructions. Quantitation of the bands from autoradiograms was done by using Cyclone™ Phosphor System (Packard Instruments Co. Inc., Meriden, Conn.).

GADD45 mRNA = test: RNase protection assay, GADD45 in A549; assay type: cell-based, human; conditions: TSA 250 ng/ml, 16 hours
Experimental: as §7

Bax mRNA = test: RNase protection assay, Bax in A549; assay type: cell-based, human; conditions: TSA 250 ng/ml, 16 hours
Experimental: as §7

mammalian HDAC = conditions: Yoshida et al. 1990; cited from earlier work
[1] = test system: murine erythroleukemia cells; conditions: Yoshida et al. 1987; cited from earlier work

Compound | Apoptosis, A549 (A549) | Apoptosis, T24 (T24) | Apoptosis, MDAmb231 (MDAmb231) | Apoptosis, HMEC (HMEC) | antisense activity, HDAC-2 RNA expression (human HDAC-2 RNA) | expression of HDAC-2 protein (human HDAC-2 protein) | effect on cancer cell growth and apoptosis (human cancer cells) | antisense activity, HDAC-6 RNA expression (human HDAC-6 RNA) | expression of HDAC-6 protein (human HDAC-6 protein) | antisense activity, HDAC-3 RNA expression (human HDAC-3 RNA) | expression of HDAC-3 protein (human HDAC-3 protein) | fold induction of transcription, p21, A549, TSA vs lipofectin (p21 mRNA) [fold] | fold induction of transcription, GADD45, A549, TSA vs lipofectin (GADD45 mRNA) [fold] | fold induction of transcription, Bax, A549, TSA vs lipofectin (Bax mRNA) [fold] | inhibition of mammalian HDAC (mammalian HDAC) | induction of differentiation in murine erythroleukemia cells [1]
HDAC-2 AS: 5′-GCTGAGCTGTTCTGATTTGG-3′, antisense to human HDAC2 3′-UTR, U31814 (chemistry not given here) | − (“−”: <= 2× fold over non-specific background) | − (“−”: <= 2× fold over non-specific background) | − (“−”: <= 2× fold over non-specific background) | − (“−”: <= 2× fold over non-specific background) | antisense activity to human HDAC-2 | specifically inhibits the expression of the respective HDAC isotype protein | minimal effect on cancer cell growth inhibition | – | – | – | – | – | – | – | – | –
HDAC-6 AS: 5′-CAGGCTGGAATGAGCTACAG-3′, antisense to human HDAC6 3′-UTR, AJ011972 (chemistry not given here) | − (“−”: <= 2× fold over non-specific background) | − (“−”: <= 2× fold over non-specific background) | − (“−”: <= 2× fold over non-specific background) | − (“−”: <= 2× fold over non-specific background) | – | – | no effect on cancer cell growth or apoptosis | antisense activity to human HDAC-6 | specifically inhibits the expression of the respective HDAC isotype protein | – | – | – | – | – | – | –
HDAC-3 AS: 5′-CGCTTTCCTTGTCATTGACA-3′, antisense to human HDAC3 3′-UTR, AF039703 (chemistry not given here) | − (“−”: <= 2× fold over non-specific background) | − (“−”: <= 2× fold over non-specific background) | − (“−”: <= 2× fold over non-specific background) | − (“−”: <= 2× fold over non-specific background) | – | – | no effect on cancer cell growth or apoptosis | – | – | antisense activity to human HDAC-3 | specifically inhibits the expression of the respective HDAC isotype protein | – | – | – | – | –
CC(/C=C/C(=O)NO)=C\[C@@H](C)C(=O)c1ccc(N(C)C)cc1 [TSA, (R)-Trichostatin A] | ++ (“++”: 3-5× fold) | ++ (“++”: 3-5× fold) | ++ (“++”: 3-5× fold) | + (“+”: 2-3× fold) | – | – | – | – | – | – | – | 2.8 | 0.6 | 0.8 | potent inhibitor of mammalian HDAC | potent inducer of differentiation
